Read-outs that look alike come from different tables or passages of the source.
Key:
His-tagged PhoQ = biological target: T1, His-tagged PhoQ (Salmonella enterica, UniProt P0DM80); assay: Phos-tag gel autophosphorylation, membrane extract, anti-His blot; assay type: biochemical; settings: with ATP, in vitro
T1 construct: 6xHis-tagged PhoQ, no truncation stated, in membrane extracts of E. coli DH5alpha; anti-His read-out; dimeric histidine kinase

[1] = biological target: T2, PhoQ^SD (periplasmic sensor domain of PhoQ) (Salmonella enterica, UniProt P0DM80); assay: microscale thermophoresis; assay type: binding
T2 construct: periplasmic sensor domain (residues 45-188 as aligned; exact construct borders in supplement), His-tagged, pET28a, E. coli BL21, Ni-NTA purified, dimer by native-PAGE
From the text: microscale thermophoresis on PhoQ^SD (periplasmic sensor domain of PhoQ) | NAL, CAZ, or ofloxacin, we also obtained well-fitted curves

[2] = biological target: T2, PhoQ^SD (periplasmic sensor domain of PhoQ); assay: differential scanning calorimetry; assay type: binding; settings: 20 μM protein, 100 μM ligand, 10 mM sodium phosphate pH 7.4; Tm of complex, apo Tm 52.29 °C
[3] = biological target: periplasmic sensor domain of PhoQ (PhoQ^SD), His-tagged, S. Enteritidis (Salmonella Enteritidis); assay: native gel or EMSA; native-PAGE of PhoQ^SD expressed in E. coli BL21; data not shown

CO/N=C(\C(=O)N[C@@H]1C(=O)N2C(C(=O)[O-])=C(C[N+]3(C)CCCC3)CS[C@H]12)c1csc(N)n1 [cefepime]
Phos-tag gel autophosphorylation, membrane extract, anti-His blot (His-tagged PhoQ): cephalosporins (ceftazidime, ceftriaxone, and cefepime) or ATP

CC(C)(O/N=C(\C(=O)N[C@@H]1C(=O)N2C(C(=O)[O-])=C(C[n+]3ccccc3)CS[C@H]12)c1csc(N)n1)C(=O)O [ceftazidime]
Kd [1]: 25.6 ± 13.4 µM | Tm [2]: 50.54 °C

CO/N=C(\C(=O)N[C@@H]1C(=O)N2C(C(=O)O)=C(CSc3nc(=O)c(=O)[nH]n3C)CS[C@H]12)c1csc(N)n1 [ceftriaxone]
Phos-tag gel autophosphorylation, membrane extract, anti-His blot (His-tagged PhoQ): cephalosporins (ceftazidime, ceftriaxone, and cefepime) or ATP

O=C(O)c1cn(C2CC2)c2cc(N3CCNCC3)c(F)cc2c1=O [ciprofloxacin]
Phos-tag gel autophosphorylation, membrane extract, anti-His blot (His-tagged PhoQ): treated with quinolones (nalidixic acid, ciprofloxacin, and ofloxacin)

CCn1cc(C(=O)O)c(=O)c2ccc(C)nc21 [nalidixic acid]
Kd [1]: 24.7 ± 4.3 µM | Tm [2]: 51.00 °C

CC1COc2c(N3CCN(C)CC3)c(F)cc3c(=O)c(C(=O)O)cn1c23 (stereo not drawn) [ofloxacin]
Kd ([1]; read-out: Kd): 33.1 ± 28.3 µM

periplasmic sensor domain of PhoQ (PhoQ^SD), His-tagged, S. Enteritidis (domain or fragment)
stoichiometry N [3]: 2
